Source: patent publication US9849198B2, “Discrete imaging of hepatic oxidative and nitrosative stress with two-channel nanoparticles for in vivo drug safety screening” (The Board of Trustees of the Leland Stanford Junior …, priority 2013, dated 2017)

How the values were obtained:
[1] = system: APAP-induced hepatic ROS and RNS production; test: In vivo monitoring of remediation of APAP-induced hepatotoxicity with enzyme inhibitors and antioxidant scavengers; set-up: species or system mice; conditions: for FL index / ONOO/HOCl production in liver / luminescence emission / H2O2 production in liver: APAP 300 mg/kg i.p. with GSH 200 mg/kg i.v., 1-ABT 2×100 mg/kg i.p. or t-1,2-DCE 0.2 mg/kg i.p.
Protocol: To this end, the effects of inhibitors of APAP bioactivation on in vivo hepatic ROS and RNS production were evaluated using the CF-SPNs of the disclosure (FIGS. 4A, 4C, and 4D).
Without wishing to be bound by any one theory, a mechanism for APAP bioactivation involves CYP450-mediated oxidation to an iminoquinone, N-acetylparaquinonimine (NAPQI), which can bind directly to cellular proteins to induce mitochondrial dysfunction and the production of ONOO, or undergo reduction by molecular oxygen to form superoxide (O2.^−) and H2O2 (FIG. 4B).
For inhibitor studies, animals were treated with 200 mg/kg of GSH intravenously 5 min prior to drug treatment (James et al., (2003) Toxicol. Sci. 75: 458-467), with 0.2 mg/kg t-1,2-DCE intraperitoneally 2 h prior to drug treatment (Jackson et al., (2000) Toxicol. Sci. 55: 266-273), or with 100 mg/kg 1-ABT intraperitoneally 12 and 24 h prior to drug treatment (as described in Jackson et al., (2000) Toxicol. Sci. 55: 266-273).

[2] = system: drug-induced liver production of H2O2; conditions: APAP 300 mg/kg i.p.; 0.2 mg luminol i.v., dose equal to CPPO in 0.8 mg CF-SPN
[3] = system: liver tissue; test: Histology (H&E), nitrotyrosine immunohistochemistry and TUNEL staining of liver after drug challenge; assay type: in vivo, mice
Protocol: The correlation of an imaging biomarker with histological changes in the tissue of interest is desirable to validate the use of a biomarker for indicating an intended pathological outcome. To this end, histological and immunohistochemical analysis of liver tissue was performed on mice 45 min (FIGS. 3D and 11) and 180 min (FIGS. 3E and 11) following treatment with the indicated doses of APAP.
Animals were imaged longitudinally for the indicated lengths of time, warmed until observable sternal recumbence, and then returned to their cage. Animals were euthanized 180 min following drug treatment, and their livers were resected and placed into buffered formalin for histological examination. A separate set of animals was fasted, treated with drug, and their livers were resected after euthanasia to provide tissues for histological examination 45 min following drug treatment.
All tissues were embedded in paraffin prior to 10 micron sectioning. Histology samples were stained by hematoxylin and eosin under standard protocols. Immunohistochemistry samples were processed using an anti-nitrotyrosine primary antibody (Life Technologies Inc., NY, USA) at 1:500 dilution, with color development according to the protocol described in the DAKO LSB+ kit. Endogenous peroxidases were quenched prior to processing. TUNEL staining was performed according to the manufacturer instructions using the ApopTag Plus Peroxidase In Situ Apoptosis Kit (EMD Millipore, Mass., USA). All images were acquired using an Olympus IX2-UCB (Olympus America Inc., PA, USA) inverted fluorescence microscope equipped with a Nuance (CRi Inc., MA, USA) hyperspectral camera capable of brightfield full color imaging.

[4] = system: drug-induced hepatic oxidative and nitrosative stress; test: Real-time in vivo CF-SPN imaging of drug-induced hepatotoxicity (chemiluminescence and fluorescence index); set-up: species or system female nude mice
Protocol: Female nude mice were administered a given dose of APAP intraperitoneally, anesthetized, and fitted with tail vein catheters.
All animal experiments involved 8-10 week old female nude mice (Charles River Laboratories International, Inc., Mass., USA). Animals were fasted for 8 h prior to imaging for all drug-induced hepatotoxicity imaging. Animals were treated intraperitoneally with sterilized saline solutions of APAP (10 mg/mL) or INH (10 mg/mL) and were then anesthetized with intraperitoneal injection of 100 mg/kg ketamine and 10 mg/mL xylazine. A tail vein catheter was inserted, and the mice were placed in an IVIS® Spectrum imaging system. Fifteen minutes after the administration of drug, 0.8 mg CF-SPN was injected intravenously through the tail vein catheter, and imaging began immediately. Luminescence images were acquired for 3 min with an open filter, and fluorescence images were acquired using autoexposure with excitation of 580±10 nm, and emission at both 680±10 nm and 820±10 nm.
Luminescence data was processed using Living Image software (v. 4.3.1, Perkin Elmer, Mass., USA) for all experiments, in addition to fluorescence data for biodistribution experiments. For fluorescent ratiometric mapping of liver intensity, image scale bars were normalized, with the scale set to a red color scheme.
Fluorescence images without photograph overlay were exported as TIFF, read into Matlab® (v. 8.0.0.783, The MathWorks Inc., CO, USA) where the percent difference between the fluorescence intensity at 680 nm and 820 nm was mapped for the liver region of interest. To plot the fluorescence index (FL index) over time, fluorescence intensities of the liver region of interest were extracted for images acquired with emission at 680 nm and at 820 nm using Living Image software. The intensity values, measured in units of radiance efficiency, were exported to Excel® where the percent difference in emission intensity at 680 nm and 820 nm was calculated. Finally, the FL index was calculated as the ratio of the percent difference of drug treated animals to that of control animals. All statistical analyses were performed using Prism software (v. 5.0c, GraphPad Software Inc., CA, USA).

[5] = anti-tuberculosis chemotherapy; cited from earlier work
[6] = system: liver H2O2; test: Extension of H2O2 detection window by readministration of CF-SPN after APAP; assay type: in vivo, mice; conditions: APAP 300 mg/kg i.p.
Protocol: FIG. 10A illustrates extension luminescent images of the time course of H2O2 detection after drug challenge by readministration of CF-SPN. Mice were administered 300 mg/kg APAP (top row, 1-4) or saline (bottom row, 5-8) i.p., followed by the administration of 0.8 mg CF-SPN i.v. After 25 min, CF-NP was readministered i.v.
FIG. 10B is a graph illustrating the quantitation of liver luminescence. Black arrow in indicates CF-SPN readministration. Numbers on images correspond to time points indicated on plot.
This elevation in luminescence from APAP overdose was sustained over the time course of imaging (FIG. 3B). However, due to the baseline consumption of CPPO that had been observed in mouse serum (FIG. 7B), the ability to extend the H2O2 detection window with the re-administration of CF-SPN was assessed (FIG. 10). The re-administration of CF-SPN following treatment with a hepatotoxic dose of APAP (300 mg/kg) produced an elevated luminescence signal having approximately 50% of the intensity of the initial CF-SPN injection.

[7] = 200, 100, 50 mg/kg i.p., 0.8 mg CF-SPN i.v.

N[C@@H](CCC(=O)N[C@@H](CS)C(=O)NCC(=O)O)C(=O)O [GSH, glutathione]
FL index / ONOO/HOCl production in liver [1]: reduced level of H2O2 and ONOO/HOCl production relative to mice receiving APAP alone, but still elevated | luminescence emission / H2O2 production in liver [1]: reduced level of H2O2 and ONOO/HOCl production relative to mice receiving APAP alone, but still elevated

Cl/C=C/Cl [t-1,2-DCE, trans-1,2-dichloroethylene]
FL index / ONOO/HOCl production in liver [1]: suppressed ONOO/HOCl production to the same extent | luminescence emission / H2O2 production in liver [1]: completely prevent H2O2 production

Nc1cccc2c(=O)[nH][nH]c(=O)c12 [Luminol, luminol]
luminescent signal from liver after APAP overdose [2]: did not produce any detectable luminescent signal

NNC(=O)c1ccncc1 [INH, isoniazid]
severity of liver tissue degradation (histology, H&E) ([3]; 180 min after drug administration, 200, 100, 50 mg/kg i.p.): dose-dependent increase in the severity of liver tissue degradation | dose dependence of H2O2 production (chemiluminescence) [4, 7]: threshold dose-type production | dose dependence of ONOO/HOCl production (fluorescence index) [4, 7]: dose-dependent enhancement | kinetics of oxidative stress compared with APAP ([4]; i.p., chemiluminescent channel): more short-lived oxidative burst | kinetics of nitrosative stress compared with APAP ([4]; i.p., fluorescent channel): more rapidly developed and sustained induction of nitrosative stress | patients with associated hepatotoxicity [5]: ≤ 25%

Nn1nnc2ccccc21 [1-ABT, 1-aminobenzotriazole]
duration of H2O2 production after CF-SPN administration ([1]; APAP 300 mg/kg i.p. with 1-ABT 2×100 mg/kg i.p.): less than 20 min | FL index / ONOO/HOCl production in liver [1]: suppressed ONOO/HOCl production to the same extent | luminescence emission / H2O2 production in liver [1]: intense but short-lived

CC(=O)Nc1ccc(O)cc1 [APAP, acetaminophen]
time after administration within which a significant decrease in H2O2 production occurs [6]: ≤ 60 min | foci positive for protein nitrotyrosyl residues or TUNEL (DNA fragmentation) ([3]; 45 min after drug administration): no foci positive | histological changes in liver tissue (hematoxylin/eosin) ([3]; 45 min after drug challenge, any dose level (300, 150, 75 mg/kg)): No histological changes | immunohistochemical and histological findings in liver ([3]; 180 min after administration, 300 mg/kg): significant protein nitrotyrosyl and TUNEL-positive foci, as well as hepatocellular degeneration characteristic of APAP-induced oncotic necrosis | immunohistochemical or histological changes to liver tissue ([3]; lower doses (150 mg/kg, 75 mg/kg)): did not induce immunohistochemical or histological changes to liver tissue | liver chemiluminescence (H2O2) ([4]; 150 mg/kg and 75 mg/kg i.p., 0.8 mg CF-SPN i.v.): only baseline luminescence similar to untreated mice | liver chemiluminescence (H2O2) ([4]; 300 mg/kg i.p., by 18 min after start of imaging, 0.8 mg CF-SPN i.v.): significant enhancement in signal | elevation in percent difference between fluorescence emission at 680 nm and 820 nm (ONOO/HOCl) ([4]; 53 min after CF-SPN administration, doses 300, 150, 75 mg/kg i.p.): only observed for mice receiving 300 mg/kg APAP | timing of increase in ONOO/HOCl generation (FL index) ([4]; APAP overdose 300 mg/kg i.p.): later than the generation of H2O2
